Reference: publication PMC11141368, “Antioxidant, antibacterial, enzyme inhibition and fluorescence characteristics of unsymmetrical thiourea derivatives” (Heliyon, 2024)
Where “and” joins values, the source holds several entries; their conditions need not be identical. Identical values can stand only once.

Columns and labels:
[1] = ABTS free radical scavenging assay; format: biochemical
Description: (§1) In accordance with the procedure described in the literature, the ABTS activity assay was applied to evaluate the free radical scavenging capabilities of the synthesized compounds (1–6). ABTS solution was prepared by mixing 7 mM ABTS and 2.45 mM potassium persulfate and was then placed for 16 h under dark at room temperature. A methanol dilution was performed on the solution to achieve an absorbance of 0.706 ± 0.001 at 734 nm before starting the assay. To quantify the assay, 3 mL of the ABTS solution has been added to different concentrations (ranging from 62.5 to 1000 μg/mL) of every compound (300 μL) that were dissolved in methanol. Then after 1 min of incubation, the absorbance was continuously measured for 5 min. To confirm precision, all experiments were conducted in triplicate. The antioxidant capacities of the compounds were assessed with gallic acid as a reference, and the ability to remove free radicals was calculated as a percentage for each compound employing Equation.1 as presented below. Additionally, the DPPH free radical scavenging method was employed to assess the antioxidant activity of compounds (1–6), in accordance with a widely recognized procedure documented in existing literature. Concentrations ranging from 62.5 to 1000 μg/mL of compounds (1–6), dissolved in methanol, were introduced into a 2 mL solution of DPPH (0.002 % in methanol). The resulting solutions were kept in the dark at room temperature for a duration of 30 min. The amount of light absorbed by the solutions was then determined using a UV/vis spectrophotometer at a wavelength of 517 nm. The investigations were performed three times, using the exact protocol described for the ABTS scavenging assay. Afterwards, the antioxidant capabilities of each molecule were assessed using calculation.(1) Scavengingactivity(%)=A−B/A×100
(§2) Where, A = absorbance of ABTS/DPPH and B = absorbance of solution containing ABTS/DPPH and test samples.

[2] = system: E. coli; assay: Antibacterial agar well diffusion; format: cell-based, Escherichia coli (ATCC25922); details: Escherichia coli, 24 h, 6.25 mg/mL per well, 37 °C
From the text: (§3) The antibacterial assay was done for all compounds (1–6) as described in previous studies. The mean number of viable organisms per milliliter of stock suspensions containing Escherichia coli (ATCC25922), Pseudomonas aeruginosa (ATCC27853), Salmonella typhi (ATCC0650), and Staphylococcus aureus (NCTC25953) was uncovered using the surface viable counting method. Preparations of suspensions containing approximately 108–109 colony forming units (CFU) per milliliter were made. Aseptic nutritional agar was formulated and transferred onto petri dishes. Cultures of bacteria were uniformly distributed on agar surface using sterile brush sticks. Five wells, each with a diameter of 6 mm, were made in each plate using a sterile borer. Afterwards, a concentration of 6.25 mg/mL of each component was applied to separate wells. Cephradine, a readily accessible antibiotic, was employed as a reference standard at an equivalent concentration. Following sealing, the agar dishes were incubated at a controlled temperature of 37 °C for a period of 24 h. The zone of inhibition in the plates was determined, which represents the inhibition of bacterial growth. Each sample zone of inhibition diameter was evaluated, and the antibacterial effectiveness of each drug was quantified according to the mean diameter of the inhibition zone (in millimetres).

[3] = system: S. typhi; assay: Antibacterial agar well diffusion; format: cell-based, Salmonella typhi (ATCC0650); details: Salmonella enterica, TYPHI, 24 h, 6.25 mg/mL per well, 37 °C
From the text: as §3

[4] = target: T1, butyryl cholinesterase (BChE) (Equus caballus, UniProt P81908); assay: Anticholinesterase assay (Elman's test), BChE; format: biochemical; details: for inhibition at 62.5 µg/mL / inhibition at 125 µg/mL / inhibition at 250 µg/mL / inhibition at 500 µg/mL / inhibition at 1000 µg/mL: read-out: BChE Percent inhibition
T1 construct: The AChE was derived from the electric eel, while BChE was obtained from equineserum; from tissue; host or cells: equine serum
T1 sequence (P81908 whole entry): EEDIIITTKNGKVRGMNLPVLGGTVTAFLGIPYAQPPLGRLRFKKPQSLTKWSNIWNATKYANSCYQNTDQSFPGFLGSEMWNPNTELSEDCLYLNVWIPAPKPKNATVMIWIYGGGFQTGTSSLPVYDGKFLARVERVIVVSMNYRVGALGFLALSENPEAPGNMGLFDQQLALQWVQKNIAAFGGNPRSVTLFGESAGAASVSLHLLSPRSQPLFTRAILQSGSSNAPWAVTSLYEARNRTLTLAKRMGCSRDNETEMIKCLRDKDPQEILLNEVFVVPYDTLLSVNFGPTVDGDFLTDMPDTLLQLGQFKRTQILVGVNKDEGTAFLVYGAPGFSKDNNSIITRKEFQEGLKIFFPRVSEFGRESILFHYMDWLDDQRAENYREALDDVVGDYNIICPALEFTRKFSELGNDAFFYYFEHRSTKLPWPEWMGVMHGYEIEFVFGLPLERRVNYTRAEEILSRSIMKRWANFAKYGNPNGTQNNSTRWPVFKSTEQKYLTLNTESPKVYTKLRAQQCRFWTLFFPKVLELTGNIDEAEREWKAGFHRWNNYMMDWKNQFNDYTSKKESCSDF
Description: (§4) This assay employed two enzymes, namely acetylcholinesterase (AChE) and butyryl cholinesterase (BChE). The AChE was derived from the electric eel, while BChE was obtained from equineserum. The synthesized compounds were dissolved in phosphate buffer (0.1 M, pH 8.0). The enzymes AChE (518 U/mg) and BChE (7–16 U/mg) were diluted in a 0.1 M phosphate buffer to achieve concentrations of 0.03 U/mL and 0.01 U/mL, respectively. Preparations of ATchI (0.5 mM), DTNB (0.2273 mM), and BTchI (0.5 mM) were made in distilled water and stored at a low temperature of 8 °C. […] The solution was heated to 30 °C for 15 min, followed by the gradual addition of the substrate. Absorbance of the heated sample at 412 nm was measured using a double beam spectrophotometer. […] The percentage activity (A) and inhibition of the enzyme were determined by applying the rate of absorption as a function of time (V=ΔAbs/Δt) using the following equation (Equation (2)).(2) %Inhibition=V/Vmax×100 Where V = enzyme inhibition activity of products and Vmax = enzyme activity without test of product.

[5] = system: P. aeruginosa; assay: Antibacterial agar well diffusion; format: cell-based, Pseudomonas aeruginosa (ATCC27853); details: Pseudomonas aeruginosa, 24 h, 6.25 mg/mL per well, 37 °C
From the text: as §3

[6] = system: S. flexenari; assay: Antibacterial agar well diffusion; format: cell-based; details: 24 h, 6.25 mg/mL per well, 37 °C
[7] = DPPH free radical scavenging assay; format: biochemical
Description: as §1, §2

[8] = target: T2, acetylcholinesterase (AChE) (Electrophorus electricus, UniProt O42275); assay: biochemical; details: for inhibition at 62.5 µg/mL / inhibition at 125 µg/mL / inhibition at 250 µg/mL / inhibition at 500 µg/mL / inhibition at 1000 µg/mL: read-out: AChE Percent inhibition
T2 construct: The AChE was derived from the electric eel, while BChE was obtained from equineserum; from tissue; host or cells: electric eel (tissue not specified)
T2 sequence (O42275 24-633): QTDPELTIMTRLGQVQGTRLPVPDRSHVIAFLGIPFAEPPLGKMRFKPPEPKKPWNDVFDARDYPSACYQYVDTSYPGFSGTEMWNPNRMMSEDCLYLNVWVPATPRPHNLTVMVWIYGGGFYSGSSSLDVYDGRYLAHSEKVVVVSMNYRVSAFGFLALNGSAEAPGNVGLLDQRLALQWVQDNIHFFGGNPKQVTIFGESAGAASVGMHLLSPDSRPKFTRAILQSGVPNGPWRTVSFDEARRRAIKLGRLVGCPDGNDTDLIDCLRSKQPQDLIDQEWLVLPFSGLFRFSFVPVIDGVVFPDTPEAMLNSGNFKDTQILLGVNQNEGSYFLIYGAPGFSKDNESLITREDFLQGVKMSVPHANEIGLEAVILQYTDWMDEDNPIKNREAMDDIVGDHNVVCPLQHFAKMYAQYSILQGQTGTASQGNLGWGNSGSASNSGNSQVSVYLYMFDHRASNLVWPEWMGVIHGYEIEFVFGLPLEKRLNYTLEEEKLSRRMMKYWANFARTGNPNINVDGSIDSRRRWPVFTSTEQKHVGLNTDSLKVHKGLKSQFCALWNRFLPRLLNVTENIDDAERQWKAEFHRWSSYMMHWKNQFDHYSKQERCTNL
Description: as §4

| SMILES | ABTS IC50 [1] | ABTS %inhibition ([1]; 62.5 μg/mL) | ABTS %inhibition ([1]; 250 μg/mL) | ABTS %inhibition ([1]; 500 μg/mL) | ABTS %inhibition ([1]; 1000 μg/mL) | zone of inhibition at 6250 µg/mL [2] | zone of inhibition at 6250 µg/mL [3] | IC50 [4] | inhibition at 62.5 µg/mL [4] | inhibition at 125 µg/mL [4] | inhibition at 250 µg/mL [4] | inhibition at 500 µg/mL [4] | inhibition at 1000 µg/mL [4] | zone of inhibition at 6250 µg/mL [5] | zone of inhibition at 6250 µg/mL [6] | DPPH IC50 [7] | DPPH %inhibition ([7]; 62.5 μg/mL) | DPPH %inhibition ([7]; 125 μg/mL) | DPPH %inhibition ([7]; 250 μg/mL) | DPPH %inhibition ([7]; 500 μg/mL) | also measured |
| --- | --- | --- | --- | --- | --- | --- | --- | --- | --- | --- | --- | --- | --- | --- | --- | --- | --- | --- | --- | --- | --- |
| S=C(Nc1ccccn1)NC1CCCCC1 [Compound 1, 1-cyclohexyl-3-(pyridin-2-yl) thiourea] | 67.08 µg/mL | 47.65 ± 1.74% | 63.59 ± 2.50% | 72.20 ± 1.90% | 84.81 ± 1.17% | 9.5 mm | 10 mm | 96 µM | 65.8 ± 1.5% | 71.6 ± 1.06% | 76.42 ± 0.43% | 84.2 ± 1.83% | 91.76 ± 0.71% | 9 mm | 8.5 mm | 63.02 µg/mL | 48.57 ± 2.03% | 54.32 ± 1.89% | 63.01 ± 1.65% | 75.63 ± 2.60% | ABTS %inhibition ([1]; 125 μg/mL): 54.45 ± 0.96%; DPPH %inhibition ([7]; 1000 μg/mL): 85.10 ± 1.45%; IC50 [8]: 115 µM and 117 µM; inhibition at 62.5 µg/mL [8]: 62.44 ± 0.58%; inhibition at 125 µg/mL [8]: 67.6 ± 1.73%; inhibition at 250 µg/mL [8]: 74.3 ± 2.15%; inhibition at 500 µg/mL [8]: 81.7 ± 1.34%; inhibition at 1000 µg/mL [8]: 88.6 ± 1.12% |
| Cc1cccnc1NC(=S)NC1CCCCC1 [Compound 2, 1-cyclohexyl-3-(3-methylpyridin-2-yl)thiourea] | 82.02 µg/mL | 45.52 ± 2.80% | 60.39 ± 1.71% | 70.37 ± 2.37% | 79.87 ± 2.65% | 9.5 mm | 11.5 mm | 1260 µM | 31.5 ± 0.71% | 37.5 ± 0.77% | 45.8 ± 0.58% | 56.45 ± 0.49% | 64.79 ± 0.62% | 13.5 mm | 11 mm | 72.00 µg/mL | 46.51 ± 2.74% | 54.86 ± 2.86% | 64.15 ± 2.10% | 73.41 ± 2.87% | ABTS %inhibition ([1]; 125 μg/mL): 51.10 ± 1.39%; DPPH %inhibition ([7]; 1000 μg/mL): 81.22 ± 2.89%; IC50 [8]: 1480 µM; inhibition at 62.5 µg/mL [8]: 29.7 ± 0.61%; inhibition at 125 µg/mL [8]: 35.7 ± 0.77%; inhibition at 250 µg/mL [8]: 43.8 ± 0.56%; inhibition at 500 µg/mL [8]: 54.6 ± 0.8%; inhibition at 1000 µg/mL [8]: 62.6 ± 0.77% |
| Cc1ccc(NC(=S)NC2CCCCC2)c(C)c1 [Compound 3, 1-cyclohexyl-3-(2,4-dimethylphenyl) thiourea] | 115.07 µg/mL | 46.06 ± 1.86% | 62.14 ± 1.30% | 71.16 ± 2.10% | 80.11 ± 1.01% | 11 mm | 8.5 mm | 468 µM | 44.29 ± 0.43% | 50.23 ± 0.44% | 55.8 ± 1.07% | 61.87 ± 0.39% | 67.44 ± 0.09% | 13.5 mm | 10 mm | 118.05 µg/mL | 46.72 ± 2.13% | 51.88 ± 1.29% | 62.53 ± 1.11% | 71.19 ± 1.27% | DPPH %inhibition ([7]; 1000 μg/mL): 80.38 ± 1.10%; IC50 [8]: 548 µM; inhibition at 62.5 µg/mL [8]: 43.7 ± 0.66%; inhibition at 125 µg/mL [8]: 49.7 ± 0.35%; inhibition at 250 µg/mL [8]: 53.1 ± 0.62%; inhibition at 500 µg/mL [8]: 59.01 ± 0.42%; inhibition at 1000 µg/mL [8]: 65.5 ± 2.26% |
